Laboratory results published in US9227923B2, “Pesticidal carboxamides” (Bayer Intellectual Property GmbH, priority 2009, dated 2016).

Columns and labels:
Format in all cases: in vivo
Boophilus microplus = Boophilus microplus test (injection); conditions: for activity (mortality in %; 100% means that all eggs are infertile): application rate of 20 μg/animal, injection, after 7 days; for mortality at 0.02 mg: Rhipicephalus microplus, 168 h, read-out: activity (mortality in %; 100% means that all eggs are infertile)
Method: Solvent: dimethyl sulfoxide
Five adult engorged female ticks (Boophilus microplus) are injected with […] compound solution into the abdomen. Ticks are transferred into replica plates and incubated in a climate chamber for a period of time. Egg deposition of fertile eggs is monitored.
After 7 days mortality in % is determined. 100% means that all eggs are infertile; 0% means that all eggs are fertile. […]

[1] = system: Tobacco Cutworm (Spodoptera litura) Larvae; assay: Test against tobacco cutworm (Spodoptera litura) larvae, leaf dip; conditions: active compound concentration of 100 ppm, third instar larvae, after 7 days; for pest or weed control at 100 ppm: Spodoptera litura, foliar, 168 h, read-out: insecticidal activity
How it was run: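 Sweet potato leaves were dipped in the test solution (DMF solvent, polyoxyethylene alkyl phenyl ether emulsifier), air-dried and offered to ten third-instar larvae per dish at 25 °C, with fresh leaves added on days 2 and 4. Mortality was counted at day 7 and expressed as % insecticidal activity (100% = all dead).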

[2] = system: Cucurbit Leaf Beetle (Aulacophora Femoralis); assay: Test against cucurbit leaf beetle (Aulacophora femoralis), leaf dip; conditions: active compound concentration of 100 ppm, second instar larvae, after 7 days; for pest or weed control at 100 ppm: Aulacophora, foliar, 168 h, read-out: insecticidal activity
Method: (§1) Solvent: 3 parts by weight of dimethylformamide
(§2) Emulsifier: 1 part by weight of polyoxyethylene alkyl phenyl ether
Leaves of cucumber were immersed in the test solution at the appropriate concentration, and the leaves were dried in air. The leaves were then put in a plastic cup containing sterilized black soil and five Aulacophora femoralis at second instar larvae were released in the cup. The cups were placed in a temperature-controlled chamber at 25° C. After 7 days, the number of dead larvae was counted, and thus the insecticidal activity was calculated. An insecticidal activity of 100% means that all larvae were killed, whereas an insecticidal activity of 0% means that no larva was killed.

[3] = system: Two-Spotted Spider Mite (Tetranychus Urticae); assay: Test against two-spotted spider mite (Tetranychus urticae), spray; conditions: active compound concentration of 100 ppm; adult mites; after 7 days
Source text: as §1, §2

[4] = system: Lucilia cuprina 1st instar larvae; assay: whole plant or invertebrate; conditions: application rate of 100 ppm; after 48 hrs
Method: species: Lucilia cuprina 1st instar larvae (age 24 hrs)
solvent: dimethyl sulfoxide
Serial dilutions are made to obtain the desired rates. Approximately 20 Lucilia cuprina 1st instar larvae are transferred into a test tube containing 1 cm^3 of minced horse meat and 0.5 ml aqueous dilution of test compound. After 48 hrs percentage of larval mortality are recorded. 100% efficacy=all larvae are killed, […].

| SMILES | activity (mortality in %; 100% means that all eggs are infertile) (Boophilus microplus) [%] | insecticidal activity [1] [%] | insecticidal activity [2] [%] | acaricidal activity [3] [%] | pest or weed control at 100 ppm [1] [%] | pest or weed control at 100 ppm [2] [%] | activity (percentage of larval mortality) [4] [%] | mortality at 0.02 mg (Boophilus microplus) [%] |
| --- | --- | --- | --- | --- | --- | --- | --- | --- |
| CCc1cc(C(F)(C(F)(F)F)C(F)(F)F)cc(C)c1NC(=O)c1ccc(C#N)nc1 [Compound J-1] | 95 | – | – | – | – | – | – | – |
| CCc1cc(C(F)(C(F)(F)F)C(F)(F)F)cc(C)c1NC(=O)c1ccc(CNC(=O)CC2CC2)cn1 [Compound 7-5] | 95 | 100 | 100 | – | – | – | – | – |
| CCc1cc(C(F)(C(F)(F)F)C(F)(F)C(F)(F)F)cc(C)c1NC(=O)c1ccc(CNC(=O)c2cccnc2F)c(Cl)c1 (stereo not drawn) [Compound 5-155] | – | 100 | 100 | 100 | – | – | – | – |
| CCc1cc(C(F)(C(F)(F)F)C(F)(F)C(F)(F)F)cc(C)c1NC(=O)c1ccc(CNC(C)=O)c(Br)c1 (stereo not drawn) [Compound 5-157] | – | 100 | 100 | 100 | – | – | – | – |
| CCc1cc(C(F)(C(F)(F)F)C(F)(F)F)cc(C)c1NC(=O)c1ccc(CNC(=O)c2cccnc2F)c(C)c1 [Compound 5-103] | – | 100 | 100 | 100 | – | – | – | – |
| O=C(CC1CC1)NCc1ccc(C(=O)Nc2c(Cl)cc(C(F)(C(F)(F)F)C(F)(F)F)cc2Cl)cc1 [Compound 5-225] | – | 100 | 100 | 100 | – | – | – | – |
| CCc1cc(C(F)(C(F)(F)F)C(F)(F)F)cc(C)c1NC(=O)c1ccc(CNC(=O)CC(F)(F)F)c(Br)c1 [Compound 5-89] | – | 100 | 100 | 100 | – | – | – | – |
| CCC(=O)NC1CCc2cc(C(=O)Nc3c(C)cc(C(F)(C(F)(F)F)C(F)(F)F)cc3CC)ccc21 (stereo not drawn) [Compound 10-3] | – | 100 | 100 | 100 | – | – | – | – |
| CCc1cc(C(F)(C(F)(F)F)C(F)(F)F)cc(C)c1NC(=O)c1ccc(CNC(=O)c2cccnc2Cl)cc1 [Compound 5-41] | – | 100 | 100 | 100 | – | – | – | – |
| CCc1cc(C(F)(C(F)(F)F)C(F)(F)F)cc(C)c1NC(=O)c1ccc(C(C)NC(C)=O)cc1 (stereo not drawn) [Compound 9-2, 4-(1-acetamidoethyl)-N-[2-ethyl-4-(1,1,1,2,3,3,3-heptafluoropropan-2-yl)-6-methylphenyl]benzamide] | – | – | – | 100 | 100 | 100 | – | – |
| CCc1cc(C(F)(C(F)(F)F)C(F)(F)C(F)(F)F)cc(C)c1NC(=O)c1ccc(CNC(C)=O)c(Cl)c1 (stereo not drawn) [Compound 5-150] | – | 100 | 100 | 100 | – | – | – | – |
| CCc1cc(C(F)(C(F)(F)F)C(F)(F)F)cc(C)c1NC(=O)c1ccc(CNC(=O)C2CC2)cc1 [Compound 5-30] | – | 100 | 100 | 100 | – | – | – | – |
| CCc1cc(C(F)(C(F)(F)F)C(F)(F)C(F)(F)F)cc(C)c1NC(=O)c1ccc(CNC(C)=O)c(I)c1 (stereo not drawn) [Compound 5-194] | – | 100 | – | – | – | – | 95 | – |
| CCc1cc(C(F)(C(F)(F)F)C(F)(F)C(F)(F)F)cc(C)c1NC(=O)c1ccc(CNC(=O)CC(F)(F)F)c(F)c1 (stereo not drawn) [Compound 5-148] | – | 100 | 100 | 100 | – | – | – | – |
| CC(=O)NCc1ccc(C(=O)Nc2c(C)cc(C(F)(C(F)(F)F)C(F)(F)F)cc2OC(F)F)cc1Cl [Compound 5-294] | – | 100 | 100 | 100 | – | – | – | – |
| O=C(CC(F)(F)F)NCc1ccc(C(=O)Nc2c(Cl)cc(C(F)(C(F)(F)F)C(F)(F)C(F)(F)F)cc2Cl)cc1Cl (racemic) [Compound 5-244] | – | 100 | 100 | 100 | – | – | – | – |
| CCc1cc(C(F)(C(F)(F)F)C(F)(F)F)cc(C)c1NC(=O)c1ccc(-n2cncn2)c(CNC(=O)OC(C)(C)C)c1 [Compound 12-1, tert-butyl[5-{[2-ethyl-4-(1,1,1,2,3,3,3-heptafluoropropan-2-yl)-6-methylphenyl]carbamoyl}-2-(1H-1,2,4-triazol-1-yl)benzyl]carbamate] | – | – | – | – | 100 | – | – | 100 |
| CCC(=O)NCc1ccc(C(=O)Nc2c(C)cc(C(F)(C(F)(F)F)C(F)(F)F)cc2OC(F)F)cc1Cl [Compound 5-295] | – | 100 | 100 | 100 | – | – | – | – |

| SMILES | activity (mortality in %; 100% means that all eggs are infertile) (Boophilus microplus) [%] | insecticidal activity [1] [%] | insecticidal activity [2] [%] | acaricidal activity [3] [%] | pest or weed control at 100 ppm [1] [%] | pest or weed control at 100 ppm [2] [%] | activity (percentage of larval mortality) [4] [%] | mortality at 0.02 mg (Boophilus microplus) [%] |
| --- | --- | --- | --- | --- | --- | --- | --- | --- |
| CCC(=O)NCc1ccc(C(=O)Nc2c(C)cc(C(F)(C(F)(F)F)C(F)(F)Br)cc2CC)cc1Cl (stereo not drawn) [Compound 5-220] | – | 100 | 100 | 100 | – | – | – | – |
| CCc1cc(C(F)(C(F)(F)F)C(F)(F)F)cc(C)c1NC(=O)c1ccc(CNC(=O)CC(F)(F)F)c(C)c1 [Compound 5-102] | – | – | – | 100 | 100 | 100 | – | 100 |
| CCC(=O)NCc1ccc(C(=O)Nc2c(Cl)cc(C(F)(C(F)(F)F)C(F)(F)C(F)(F)F)cc2Cl)cc1Cl (racemic) [Compound 5-243] | – | 100 | 100 | 100 | – | – | – | – |
| CCc1cc(C(F)(C(F)(F)F)C(F)(F)F)cc(C)c1NC(=O)c1ccc(CNC(=O)CC(F)(F)F)c(Cl)c1 [Compound 5-81] | – | 100 | 100 | 100 | – | – | – | – |
| CCC(=O)NCc1ccc(C(=O)Nc2c(C)cc(C(F)(C(F)(F)F)C(F)(F)C(F)(F)F)cc2CC)cc1Cl (stereo not drawn) [Compound 5-151] | – | 100 | 100 | 100 | – | – | – | – |
| CCC(=O)NCc1ccc(C(=O)Nc2c(C)cc(C(F)(C(F)(F)F)C(F)(F)F)cc2CC)cc1Cl [Compound 5-78] | – | 100 | 100 | 100 | – | – | – | – |
| CCc1cc(C(F)(C(F)(F)F)C(F)(F)F)cc(C)c1NC(=O)c1ccc(CNC(C)=O)c(Cl)c1 [Compound 5-77] | – | 100 | 100 | 100 | – | – | – | – |
| CCc1cc(C(F)(C(F)(F)F)C(F)(F)Br)cc(C)c1NC(=O)c1ccc(CNC(=O)CC(F)(F)F)c(Cl)c1 (stereo not drawn) [Compound 5-221] | – | 100 | 100 | 100 | – | – | – | – |
| CCc1cc(C(F)(C(F)(F)F)C(F)(F)F)cc(C)c1NC(=O)c1cc(F)c(CNC(=O)CC(F)(F)F)cc1F [Compound 5-62] | – | 100 | 100 | 100 | – | – | – | – |
| CCc1cc(C(F)(C(F)(F)F)C(F)(F)C(F)(F)F)cc(C)c1NC(=O)c1ccc(CNC(=O)c2cccnc2Cl)c(Br)c1 (stereo not drawn) [Compound 5-175] | – | 100 | 100 | 100 | – | – | – | – |
| Cc1cc(C(F)(C(F)(F)F)C(F)(F)C(F)(F)F)cc(C)c1NC(=O)c1ccc(CNC(=O)CC(F)(F)F)c(F)c1F (stereo not drawn) [Compound 5-213] | – | 100 | 100 | 100 | – | – | – | – |
| CCc1cc(C(F)(C(F)(F)F)C(F)(F)F)cc(C)c1NC(=O)c1cc(F)c(CNC(=O)CC2CC2)cc1F [Compound 5-61] | – | 100 | 100 | 100 | – | – | – | – |
| CCc1cc(C(F)(C(F)(F)F)C(F)(F)F)cc(C)c1NC(=O)c1ccc(CNC(C)=O)c(Br)c1 [Compound 5-85] | – | 100 | 100 | 100 | – | – | – | – |
| CC(=O)NCc1ccc(C(=O)Nc2c(Cl)cc(C(F)(C(F)(F)F)C(F)(F)C(F)(F)F)cc2Cl)cc1Cl (racemic) [Compound 5-242] | – | 100 | 100 | 100 | – | – | – | – |
| CCC(=O)NC(C)c1ccc(C(=O)Nc2c(C)cc(C(F)(C(F)(F)F)C(F)(F)F)cc2CC)cc1 (stereo not drawn) [Compound 9-3] | – | 100 | 100 | 100 | – | – | – | – |
| CCC(=O)NCc1ccc(C(=O)Nc2c(C)cc(C(F)(C(F)(F)F)C(F)(F)F)cc2CC)cc1Br [Compound 5-86] | – | 100 | 100 | 100 | – | – | – | – |
| CCc1cc(C(F)(C(F)(F)F)C(F)(F)F)cc(C)c1NC(=O)c1cc(F)c(CNC(C)=O)cc1F [Compound 5-58] | – | 100 | 100 | 100 | – | – | – | – |
